In one test the target is T1, HMG-CoA reductase (Rattus norvegicus, UniProt P51639).
T1 sequence (P51639 1-887): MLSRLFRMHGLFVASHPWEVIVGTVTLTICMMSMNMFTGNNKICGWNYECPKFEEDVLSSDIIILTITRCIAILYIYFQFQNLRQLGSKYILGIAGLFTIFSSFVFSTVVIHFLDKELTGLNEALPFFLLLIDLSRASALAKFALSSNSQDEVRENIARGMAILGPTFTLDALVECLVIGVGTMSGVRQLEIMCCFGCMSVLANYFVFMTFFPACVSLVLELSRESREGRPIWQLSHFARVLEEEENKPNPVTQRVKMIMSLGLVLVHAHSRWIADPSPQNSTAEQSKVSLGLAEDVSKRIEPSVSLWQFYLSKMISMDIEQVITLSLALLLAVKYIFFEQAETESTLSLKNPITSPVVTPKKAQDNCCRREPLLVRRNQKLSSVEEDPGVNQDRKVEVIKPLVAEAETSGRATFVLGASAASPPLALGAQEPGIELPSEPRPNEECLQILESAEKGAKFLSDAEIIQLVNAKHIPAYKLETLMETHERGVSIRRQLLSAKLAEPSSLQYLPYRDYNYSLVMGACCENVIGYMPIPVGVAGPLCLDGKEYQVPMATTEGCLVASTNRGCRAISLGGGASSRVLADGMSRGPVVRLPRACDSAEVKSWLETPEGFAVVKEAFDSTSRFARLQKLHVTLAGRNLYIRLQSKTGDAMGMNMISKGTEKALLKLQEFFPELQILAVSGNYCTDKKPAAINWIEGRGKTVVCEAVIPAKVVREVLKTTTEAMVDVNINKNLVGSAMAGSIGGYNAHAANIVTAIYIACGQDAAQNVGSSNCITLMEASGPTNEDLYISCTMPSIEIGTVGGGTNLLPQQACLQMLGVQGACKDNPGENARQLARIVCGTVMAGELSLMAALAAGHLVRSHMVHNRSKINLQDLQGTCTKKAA
Nature of the test: COR screen: conversion of 14C-HMG-CoA to 14C-mevalonate by a purified HMG-CoA reductase preparation. In kind it is biochemical. The following applies: purified enzyme preparation of HMG-CoA reductase, read-out: IC50 (Micromoles/liter) COR. On the procedure: A second method (designated COR screen) employed the procedure detailed by T. Kita, et al., J. Clin. Invest., (1980), 66: 1094-1100. In this method, the amount of ^14 C-HMG-CoA converted to ^14 C-mevalonate in the presence of a purified enzyme preparation of HMG-CoA reductase was measured. The micromolar concentration of compound required for 50% inhibition of cholesterol synthesis was measured and recorded as an IC50 value.

The test system of test [1] is biosynthesis of cholesterol (sterol synthesis) in rat liver homogenate. Put plainly: CSI screen: inhibition of sterol synthesis (incorporation of cholesterol-14C-acetate into nonsaponifiable lipid) by rat liver homogenate. The test is classed as biochemical. The following applies: one-hour period, cholestyramine-fed rats, read-out: IC50 (Micromoles/liter) CSI. On the procedure:
The ability of compounds of the present invention to inhibit the biosynthesis of cholesterol was measured by two methods. A first method (designated CSI screen) utilized the procedure described by R. E. Dugan et al., Archiv. Biochem. Biophys., (1972), 152, 21-27. In this method, the level of HMG-CoA enzyme activity in standard laboratory rats is increased by feeding the rats a chow diet containing 5% cholestyramine for four days, after which the rats are sacrificed.
The rat livers are homogenized, and the incorporation of cholesterol-^14 C-acetate into nonsaponifiable lipid by the rat liver homogenate is measured. The micromolar concentration of compound required for 50% inhibition of sterol synthesis over a one-hour period is measured, and expressed as an IC50 value.

These results are taken from patent publication US4681893A, “Trans-6-[2-(3- or 4-carboxamido-substituted pyrrol-1-yl)alkyl]-4-hydroxypyran-2-one inhibitors of cholesterol synthesis” (Warner-Lambert Company, priority 1986, dated 1987).

Take `CC(C)c1c(C(=O)Nc2ccccc2)c(-c2ccccc2)c(-c2ccc(F)cc2)n1CC[C@H]1C[C@H](O)CC(=O)O1` (relative stereo) [Compound 1, trans-5-(4-fluorophenyl)-2-(1-methylethyl)-N,4-diphenyl-1-[2-(tetrahydro-4-hydroxy-6-oxo-2H-pyran-2-yl)ethyl]-1H-pyrrole-3-carboxamide]: the IC50 was found to be 0.05 µM on HMG-CoA reductase and 0.035 µM in test [1].

With `O=C1C[C@@H](O)C[C@H](CCn2c(-c3ccc(F)cc3)c(-c3ccccc3)c(C(=O)Nc3ccccc3)c2C(F)(F)F)O1` (relative stereo) [Compound 3, trans-5-(4-fluorophenyl)-N,4-diphenyl-1-[2-(tetrahydro-4-hydroxy-6-oxo-2H-pyran-2-yl)ethyl]-2-(trifluoromethyl)-pyrrole-3-carboxamide], the IC50 came out at 0.02 µM on HMG-CoA reductase and 0.018 µM in test [1].

Take `O=C1C[C@@H](O)C[C@H](CCn2c(-c3ccc(F)cc3)c(C(=O)Nc3ccccc3)c(-c3ccccc3)c2C(F)(F)F)O1` (relative stereo) [Compound 2, trans-2-(4-fluorophenyl)-N,4-diphenyl-1-[2-(tetrahydro-4-hydroxy-6-oxo-2H-pyran-2-yl)ethyl]-5-(trifluoromethyl)-pyrrole-3-carboxamide]: the IC50 (on HMG-CoA reductase; in test [1]) was 0.4 µM in each case.

`CC[C@H](C)C(=O)O[C@H]1CCC=C2C=C[C@H](C)[C@H](CC[C@@H]3C[C@@H](O)CC(=O)O3)[C@H]21` [Compactin, reference compound]: in test [1], the IC50 is 0.026 µM.
